Data reported in US8247211B2, “Glycopeptide antibiotics” (American Cyanamid Company, priority 2001, dated 2012).
≈ marks a conversion by molar mass, not a printed value.

How the values were obtained:
Experiment in all cases: In vitro antibacterial evaluation: minimum inhibitory concentration (MIC), broth dilution method
Assay type in all cases: cell-based
Escherichia coli = settings: broth dilution, 18 hours at 35° C.
Enterococcus sp. = settings: broth dilution, 18 hours at 35° C.
Summary of the method: (§1)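 An MIC is reported for each organism as the least concentration giving inhibition, using broth dilution over 64-0.06 μg/mL with a 5×10^5 CFU/mL inoculum.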

Staphylococcus sp. = settings: strain SMITH GC 4543; broth dilution, 18 hours at 35° C.
Summary of the method: as §1

Streptococcus sp. = settings: broth dilution, 18 hours at 35° C.
Summary of the method: as §1

Structure (SMILES): CC(c1ccccc1)C1NC(=O)CNC(=O)C(CO)NC(=O)C(C(O)C2CNC(=N)N2C2OC(CO)C(O)C(O)C2O)NC(=O)C(C(O)C2CNC(=N)N2)NC(=O)C(Cc2ccc(O)c(NC(=O)c3ccccc3)c2)NC1=O (stereo not drawn) [Example 17, Cyclo[glycyl-β-methylphenylalanyl-3-(benzamido)tyrosyl-3-(2-iminoimidazolidin-4-yl)seryl-3-(3-hexopyranosyl-2-iminoimidazolidin-4-yl)serylseryl]]
- MIC Escherichia coli (ATCC 25922) (Escherichia coli): 64 µg/mL (≈ 58.7 µM)
- MIC Escherichia coli (GC 4559) (Escherichia coli): 32 µg/mL (≈ 29.4 µM)
- MIC Escherichia coli (GC 4560) (Escherichia coli): 16 µg/mL (≈ 14.7 µM)
- MIC Enterococcus avium (GC 4558) (Enterococcus sp.; Enterococcus avium (GC 4558)): 64 µg/mL (≈ 58.7 µM)
- MIC Enterococcus faecalis (ATCC 29212) (Enterococcus sp.; Enterococcus faecalis (ATCC 29212)): >64 µg/mL
- MIC Enterococcus faecalis (GC 2242) (Enterococcus sp.; Enterococcus faecalis (GC 2242)): >64 µg/mL
- MIC Enterococcus faecalis (GC 2691) (Enterococcus sp.; Enterococcus faecalis (GC 2691)): >64 µg/mL
- MIC Enterococcus faecalis (GC 3059) (Enterococcus sp.; Enterococcus faecalis (GC 3059)): >64 µg/mL
- MIC Enterococcus faecalis (GC 4552) (Enterococcus sp.; Enterococcus faecalis (GC 4552)): >64 µg/mL
- MIC Enterococcus faecalis (GC 4553) (Enterococcus sp.; Enterococcus faecalis (GC 4553)): >64 µg/mL
- MIC Enterococcus faecalis (GC 4554) (Enterococcus sp.; Enterococcus faecalis (GC 4554)): >64 µg/mL
- MIC Enterococcus faecalis (GC 6189) (Enterococcus sp.; Enterococcus faecalis (GC 6189)): >64 µg/mL
- MIC Enterococcus faecium (GC 2243) (Enterococcus sp.; Enterococcus faecium (GC 2243)): >64 µg/mL
- MIC Enterococcus faecium (GC 4556) (Enterococcus sp.; Enterococcus faecium (GC 4556)): 64 µg/mL (≈ 58.7 µM)
- MIC Enterococcus faecium (GC 4557) (Enterococcus sp.; Enterococcus faecium (GC 4557)): 64 µg/mL (≈ 58.7 µM)
- MIC Enterococcus avium (GC 4558) (Enterococcus sp.): 64 µg/mL (≈ 58.7 µM)
- MIC Enterococcus faecalis (ATCC 29212) (Enterococcus sp.): >64 µg/mL
- MIC Enterococcus faecalis (GC 2242) (Enterococcus sp.): >64 µg/mL
- MIC Enterococcus faecalis (GC 2691) (Enterococcus sp.): >64 µg/mL
- MIC Enterococcus faecalis (GC 3059) (Enterococcus sp.): >64 µg/mL
- MIC Enterococcus faecalis (GC 4552) (Enterococcus sp.): >64 µg/mL
- MIC Enterococcus faecalis (GC 4553) (Enterococcus sp.): >64 µg/mL
- MIC Enterococcus faecalis (GC 4554) (Enterococcus sp.): >64 µg/mL
- MIC Enterococcus faecalis (GC 6189) (Enterococcus sp.): >64 µg/mL
- MIC Enterococcus faecium (GC 2243) (Enterococcus sp.): >64 µg/mL
- MIC Enterococcus faecium (GC 4556) (Enterococcus sp.): 64 µg/mL (≈ 58.7 µM)
- MIC Enterococcus faecium (GC 4557) (Enterococcus sp.): 64 µg/mL (≈ 58.7 µM)
- MIC Staphylococcus aureus-SMITH (GC 4543) (Staphylococcus sp.): >64 µg/mL
- MIC Streptococcus agalactiae (GC 4564) (Streptococcus sp.; Streptococcus agalactiae (GC 4564)): >64 µg/mL
- MIC Streptococcus pneumoniae (ATCC 6301) (Streptococcus sp.; Streptococcus pneumoniae (ATCC 6301)): >64 µg/mL
- MIC Streptococcus pneumoniae (GC 1894) (Streptococcus sp.; Streptococcus pneumoniae (GC 1894)): 64 µg/mL (≈ 58.7 µM)
- MIC Streptococcus pneumoniae (GC 4565) (Streptococcus sp.; Streptococcus pneumoniae (GC 4565)): >64 µg/mL
- MIC Streptococcus pyogenes (GC 4563) (Streptococcus sp.; Streptococcus pyogenes (GC 4563)): >64 µg/mL
- MIC Streptococcus agalactiae (GC 4564) (Streptococcus sp.): >64 µg/mL
- MIC Streptococcus pneumoniae (ATCC 6301) (Streptococcus sp.): >64 µg/mL
- MIC Streptococcus pneumoniae (GC 1894) (Streptococcus sp.): 64 µg/mL (≈ 58.7 µM)
- MIC Streptococcus pneumoniae (GC 4565) (Streptococcus sp.): >64 µg/mL
- MIC Streptococcus pyogenes (GC 4563) (Streptococcus sp.): >64 µg/mL
